Values after ≈ are worked out from the molar mass of the structure shown. Ends that are not written are not given here.
Tests used:
EV-A71/FY0805 [1] = conditions: for IC50 (µg/mL) EV-A71 /FY0805: 24 h
HCV = conditions: cited from earlier work
Echo 30/WZ16 = conditions: RD cells, 24 h, crystal violet
EV-D68/BCH895A = conditions: RD cells, 24 h, crystal violet
Poliovirus 3/nOPV3 = conditions: 24 h
EV-A71/FY0805 [2] = experiment: Receptor competition inhibition assay with cell-free heparan sulfate (HS); assay type: cell-based; conditions: peptide 62.5 µg/mL pre-incubated with HS (0–0.5 mg/mL) for 1 h, then mixed with 100 TCID50/50 µL EV-A71/FY0805, RD cells 24 h, crystal violet
Procedure: To confirm the interaction of P25 with receptor heparan sulfate (HS) on the cell surface, 50 µL P25 or its derivatives at a concentration of 62.5 µg/mL were pre-incubated with 50 µL cell-free HS (MCE, HY-101916, Princeton, NJ, USA) at different concentrations of 0–0.5 mg/mL at 37 °C for 1 h, mixed with 100 TCID50/50 µL of EV-A71/FY0805, and infected the pre-seeding RD monolayer cells on 96-well plates for 24 h. The CPE was detected and stained using crystal violet. The optical density (OD) at 550 nm was read using the TECAN Infinite 200 PRO instrument.

RD cells = experiment: Cytotoxicity assay (CCK-8); assay type: cell-based; conditions: 24 h, 2-fold dilutions from 1 mg/mL, CCK-8, absorbance 450 nm, mean ± SD, at least two independent experiments
Procedure: RD cells at a density of 4 × 10^4/100 µL/well were seeded in 96-well plates 24 h prior to the cytotoxicity assay. The peptide P25 and its derivatives were reconstituted in DMSO to a concentration of 25 mg/mL and then diluted to 1 mg/mL in DMEM with 100 mM HEPES, from which 2-fold serial dilutions of the peptides were produced, starting with the same medium. DMSO diluted in the same medium served as the control. Fifty microliters of diluted peptides and the control medium were added to the cells and cultured for 24 h. After cultivation, 5 µL of the enhanced CCK-8 reagent (Beyotime, C0043, Shanghai, China) were added directly to each well of the cell culture and cultured for an additional hour. Absorbance at 450 nm was detected using a TECAN Infinite 200 PRO instrument. The cell viability was normalized to the control, and the concentration at which a peptide inhibited 50% of the cell viability (CC50) was calculated using GraphPad Prism 9.5.1 (GraphPad software, San Diego, CA, USA).

EV-A71 = conditions: Table S2, anti-viral target EV-A71; ref [21]; cited from earlier work
From the text: page 2: Biomolecules 2024, 14, 1331. https://doi.org/10.3390/biom14101331 2 of 10 Table S2. Self-derived antiviral peptides. Source Virus Protein Peptide Sequence Mechanism Anti-viral EC50 Reference target […] Interfering PA- Influenza A PB1 PB11-25 TTFPYT binding domain of Influenza A / [48] PB1 PB1731– […] Interfering PB1- Influenza A PB1 757 ELGRQK binding domain of Influenza A / [22] PB2 EV-A71 VP1 SP40 […] Prevented EV-A71 EV-A71 6-9.3 [21] attachment μM […] Inhibiting S 0.32- HCoV-19 S P3 […] mediated cell–cell HC ...

EV-D68 = experiment: Immunostaining of viral VP1 after post-infection peptide treatment; assay type: cell-based; conditions: RD cells infected with 10 TCID50/50 µL EV-D68 for 1 h, washed, peptide at 125 µg/mL for 24 h, VP1 immune-stained area (ImageJ)
Procedure: RD cells at a density of 4 × 10^4/100 µL/well were seeded in 96-well plates 24 h prior to infection. Fifty microliters of the diluted peptide P25 were added under the following conditions: (1) pre-treatment: cells were pretreated with the peptides for 6 h, 4 h, and 2 h at 35 °C, followed by washing twice with DMEM before virus infection; (2) co-treatment: the peptide was added to the cells together with virus without washing; (3) post-treatment: […] to the medium. Co-treatment with a homemade neutralizing antibody of EV-D68 was employed as the reference control. An amount of 100 TCID50/50 µL was used for the CPE reading, while 10 TCID50/50 µL was used for immunostaining. After 22–24 h of incubation the cells were fixed using 4% formaldehyde and stained with crystal violet or an antibody. The staining of crystal violet was measured at 550 nm using a TECAN Infinite 200 PRO instrument. To detect EV-D68, the polyclonal anti-VP1 (Genetek, GTX132313, South San Francisco, CA, USA) was employed for immunostaining, while the rabbit polyclonal anti-VP1 for the staining of Echo11 was prepared in our laboratory. […] The number of plaques was counted using the CTL ELISPOT reader. […]

[3] = peptide at 125 µg/mL (about 56 µM) co-incubated with 100 TCID50/50 µL virus
[4] = co-treatment, 100 TCID50/50 µL, mean ± SD, at least two independent experiments, >125 = protection less than 50% at 125 µg/mL, NO = no inhibition observed

Molecule: CC[C@H](C)[C@H](NC(=O)[C@H](CCCNC(=N)N)NC(=O)[C@@H](NC(=O)[C@@H](NC(=O)[C@@H](NC(=O)[C@H](CCCCN)NC(=O)[C@@H](NC(=O)[C@@H](N)CCCCN)C(C)C)C(C)C)C(C)C)[C@@H](C)O)C(=O)N[C@@H](Cc1ccc(O)cc1)C(=O)N[C@@H](Cc1c[nH]cn1)C(=O)N[C@@H](CCCCN)C(=O)N[C@@H](C)C(=O)N[C@@H](CCCCN)C(=O)N[C@@H](Cc1c[nH]cn1)C(=O)N[C@H](C(=O)N[C@@H](CCCCN)C(=O)N[C@@H](C)C(=O)N[C@@H](Cc1c[nH]c2ccccc12)C(=O)N[C@@H](CS)C(=O)O)[C@@H](C)O [Peptide P25.A81]
- Antiviral activity of P25 homologous peptides to EV-A71/FY0805 (EV-A71/FY0805 [1]): displayed antiviral activity
- IC50 (µg/mL) EV-A71 /FY0805 (EV-A71/FY0805 [1]): 23.60 ± 0.49 µg/mL (≈ 10.3 µM)

Molecule: SFAIKWEYVLLLFLL [Peptide 75]
- EC50 (HCV): 0.3 µM

Molecule: ADKNFFKWTINTRSFVQLRR [Peptide P11]
- Inhibitory effect on CPE, peptide screen (EV-A71/FY0805 [1]): exhibited inhibitory effects on CPE
- Inhibitory effect on CPE, peptide screen (Echo 30/WZ16; [3]): exhibited inhibitory effects on CPE
- Inhibitory effect on CPE, peptide screen (EV-D68/BCH895A; [3]): exhibited inhibitory effects on CPE

Molecule: CC[C@H](C)[C@H](NC(=O)[C@H](Cc1c[nH]cn1)NC(=O)[C@H](C)NC(=O)[C@@H]1CCCN1C(=O)[C@H](CCCCN)NC(=O)[C@H](CCSC)NC(=O)[C@H](Cc1ccc(O)cc1)NC(=O)[C@@H](NC(=O)[C@H](CCCNC(=N)N)NC(=O)[C@@H](NC(=O)[C@@H](NC(=O)[C@@H](NC(=O)[C@@H](NC(=O)[C@H](Cc1ccccc1)NC(=O)CN)[C@@H](C)O)C(C)C)[C@@H](C)O)C(C)C)C(C)C)C(=O)N[C@@H](C)C(=O)N[C@@H](C)C(=O)N[C@@H](Cc1c[nH]c2ccccc12)C(=O)N[C@@H](C)C(=O)O [Peptide P25.12]
- IC50 (µg/mL) EV-A71 /FY0805 (EV-A71/FY0805 [1]): 41.17 ± 7.04 µg/mL (≈ 19.4 µM)

Molecule: TVTVRVYHK [Peptide P25.4]
- IC50 (µg/mL) EV-A71 /FY0805 (EV-A71/FY0805 [1]): >125 µg/mL

Molecule: CC[C@H](C)[C@H](NC(=O)[C@H](Cc1c[nH]cn1)NC(=O)[C@H](CCCCN)NC(=O)[C@@H]1CCCN1C(=O)[C@H](CCCCN)NC(=O)[C@H](CCSC)NC(=O)[C@H](Cc1ccc(O)cc1)NC(=O)[C@@H](NC(=O)[C@H](CCCNC(=N)N)NC(=O)[C@@H](NC(=O)[C@@H](NC(=O)[C@@H](NC(=O)[C@@H](NC(=O)[C@@H](N)Cc1ccccc1)[C@@H](C)O)C(C)C)[C@@H](C)O)C(C)C)C(C)C)C(=O)N[C@@H](CCCCN)C(=O)N[C@@H](C)C(=O)N[C@@H](Cc1c[nH]c2ccccc12)C(=O)N[C@@H](C)C(=O)O [Peptide P25.8]
- IC50 (µg/mL) Poliovirus 3 /nOPV3 (Poliovirus 3/nOPV3): 61.65 ± 4.59 µg/mL (≈ 28.3 µM)
- IC50 (µg/mL) EV-A71 /FY0805 (EV-A71/FY0805 [1]): 24.49 ± 2.96 µg/mL (≈ 11.3 µM)
- Interference of HS with the antiviral activity of the peptide (EV-A71/FY0805 [2]): interfered with by HS
- CC50 (RD cells): 213.07 ± 29.72 µg/mL (≈ 97.9 µM)

Molecule: HGLLYFAIFFVAAWHIRGR [Peptide H2-3]
- EC50 (HCV): 0.54 µM

Molecule: TVTVRVYMK [Peptide P25.3]
- IC50 (µg/mL) EV-A71 /FY0805 (EV-A71/FY0805 [1]): >125 µg/mL

Molecule: CC[C@H](C)[C@H](NC(=O)[C@H](Cc1c[nH]cn1)NC(=O)[C@H](CCCCN)NC(=O)[C@@H]1CCCN1C(=O)[C@H](CCCCN)NC(=O)[C@H](CCSC)NC(=O)[C@H](Cc1ccc(O)cc1)NC(=O)[C@@H](NC(=O)[C@H](CCCNC(=N)N)NC(=O)[C@@H](NC(=O)[C@@H](NC(=O)[C@@H](NC(=O)[C@@H](N)[C@@H](C)O)C(C)C)[C@@H](C)O)C(C)C)C(C)C)C(=O)N[C@@H](CCCCN)C(=O)O [Peptide P25.2]
- IC50 (µg/mL) EV-A71 /FY0805 (EV-A71/FY0805 [1]): >125 µg/mL

Molecule: CC[C@H](C)[C@H](NC(=O)[C@H](CCCNC(=N)N)NC(=O)[C@@H](NC(=O)[C@@H](NC(=O)[C@@H](NC(=O)[C@H](CCCCN)NC(=O)[C@H](Cc1ccccc1)NC(=O)CN)C(C)C)C(C)C)[C@@H](C)O)C(=O)N[C@@H](Cc1ccc(O)cc1)C(=O)N[C@@H](Cc1c[nH]cn1)C(=O)N[C@@H](CCCCN)C(=O)N[C@@H](C)C(=O)N[C@@H](CCCCN)C(=O)N[C@@H](Cc1c[nH]cn1)C(=O)N[C@H](C(=O)N[C@@H](CCCCN)C(=O)N[C@@H](C)C(=O)N[C@@H](Cc1c[nH]c2ccccc12)C(=O)N[C@@H](CS)C(=O)O)[C@@H](C)O [Peptide P25.A81GF]
- IC50 (µg/mL) Poliovirus 3 /nOPV3 (Poliovirus 3/nOPV3): >125 µg/mL
- IC50 (µg/mL) EV-A71 /FY0805 (EV-A71/FY0805 [1]): 29.28 ± 3.97 µg/mL (≈ 12.9 µM)
- IC50 (µg/mL) Echo 30 /WZ16 (Echo 30/WZ16; [4]): >125 µg/mL
- IC50 (µg/mL) EV-D68 /BCH895A (EV-D68/BCH895A; [4]): >125 µg/mL

Molecule: QMRRKVELFTYMRFD [SP40, peptide derived from VP1 of EV-A71, prevented EV-A71 attachment]
- EC50 (EV-A71): 6 to 9.3 µM

Molecule: CC[C@H](C)[C@H](NC(=O)[C@H](Cc1c[nH]cn1)NC(=O)[C@H](CCCCN)NC(=O)[C@@H]1CCCN1C(=O)[C@H](CCCCN)NC(=O)[C@H](CCSC)NC(=O)[C@H](Cc1ccc(O)cc1)NC(=O)[C@@H](NC(=O)[C@H](CCCNC(=N)N)NC(=O)[C@@H](NC(=O)[C@@H](NC(=O)[C@@H](NC(=O)[C@@H](NC(=O)[C@H](Cc1ccccc1)NC(=O)CNC(=O)[C@@H](NC(=O)[C@@H]1CCCN1C(=O)[C@H](CCC(N)=O)NC(=O)[C@@H](N)Cc1c[nH]cn1)C(C)C)[C@@H](C)O)C(C)C)[C@@H](C)O)C(C)C)C(C)C)C(=O)N[C@@H](CCCCN)C(=O)O [Peptide P25.9]
- Inhibition of the synthesis of the viral protein (EV-D68): significantly inhibited the synthesis of the viral protein
- IC50 (µg/mL) Poliovirus 3 /nOPV3 (Poliovirus 3/nOPV3): 108.10 ± 39.15 µg/mL (≈ 45.7 µM)
- IC50 (µg/mL) EV-A71 /FY0805 (EV-A71/FY0805 [1]): 13.02 ± 0.81 µg/mL (≈ 5.5 µM)
- Interference of HS with the antiviral activity of the peptide (EV-A71/FY0805 [2]): interfered with by HS

Molecule: CC[C@H](C)[C@H](NC(=O)[C@H](Cc1c[nH]cn1)NC(=O)[C@H](CCCCN)NC(=O)[C@@H]1CCCN1C(=O)[C@H](CCCCN)NC(=O)[C@H](CCSC)NC(=O)[C@H](Cc1ccc(O)cc1)NC(=O)[C@@H](NC(=O)[C@H](CCCNC(=N)N)NC(=O)[C@@H](NC(=O)[C@@H](NC(=O)[C@@H](NC(=O)[C@@H](N)[C@@H](C)O)C(C)C)[C@@H](C)O)C(C)C)C(C)C)C(=O)N[C@@H](CCCCN)C(=O)N[C@@H](C)C(=O)N[C@@H](Cc1c[nH]c2ccccc12)C(=O)N[C@@H](C)C(=O)O [Peptide P25.5]
- IC50 (µg/mL) EV-A71 /FY0805 (EV-A71/FY0805 [1]): >125 µg/mL
- Interference of HS with the antiviral activity of the peptide (EV-A71/FY0805 [2]): No significant interference

Molecule: GFTVTVRVYMK [Peptide P25.1]
- IC50 (µg/mL) EV-A71 /FY0805 (EV-A71/FY0805 [1]): 34.06 ± 9.39 µg/mL

Molecule: SWLRDIWDWICEVLSDFK [Peptide C5A, peptide from NS5A of HCV, destabilizing viral membranes]
- EC50 (HCV): 0.34 µM

Molecule: AWAKIHKPKMYVRVTVTFG [Peptide P25.R]
- CC50 (RD cells): 98.27 ± 7.13 µg/mL

Source: paper PMC11506774 (Biomolecules, 2024)
